Target: T1, human glucagon receptor (Homo sapiens, UniProt P47871)
T1 construct: expressed in transfected cells; host or cells: BHK (baby hamster kidney) cells
Test: Glucagon Binding Assay (III)
Details: BHK cell membranes, WGA SPA beads, 125I-glucagon; read-out: Glu Bd Assay (III) IC50
Outline: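 Membranes from BHK cells transfected with the human receptor, prepared at 4 °C, were used in a WGA-bead scintillation proximity binding format. Plates were shaken for 4 hours, left to settle 8–48 hours and then counted. Non-specific binding was defined with 500 nM glucagon.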

T1 sequence (P47871 26-477): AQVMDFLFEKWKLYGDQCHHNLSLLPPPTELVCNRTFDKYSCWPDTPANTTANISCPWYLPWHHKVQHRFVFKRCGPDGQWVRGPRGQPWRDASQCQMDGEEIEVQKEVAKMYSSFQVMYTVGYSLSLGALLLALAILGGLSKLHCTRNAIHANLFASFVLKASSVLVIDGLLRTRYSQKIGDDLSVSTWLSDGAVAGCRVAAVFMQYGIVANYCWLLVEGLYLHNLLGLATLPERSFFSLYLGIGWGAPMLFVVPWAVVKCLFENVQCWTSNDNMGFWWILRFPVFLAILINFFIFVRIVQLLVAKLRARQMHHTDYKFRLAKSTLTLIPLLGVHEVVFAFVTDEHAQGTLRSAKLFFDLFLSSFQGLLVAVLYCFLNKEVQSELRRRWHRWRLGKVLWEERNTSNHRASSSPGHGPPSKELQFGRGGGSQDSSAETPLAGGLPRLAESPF

IC50 [nM]	Compound
23	Cc1cc(NC(=O)N(Cc2ccc(C(=O)Nc3nn[nH]n3)cc2)C2CCC(C(C)(C)C)CC2)cc(C(F)(F)F)c1 (centres unmarked) [Example 363, 4-[1-(4-tert-Butylcyclohexyl)-3-(3-methyl-5-trifluoromethylphenyl)ureidomethyl]-N-(2H-tetrazol-5-yl)benzamide]
948	O=C(Nc1nn[nH]n1)c1ccc(CN(C(=O)c2cc(-c3ccc(Cl)cc3)cs2)c2ccc(C3CCCCC3)cc2)cc1 [Example 565, 4-(4-Chlorophenyl)thiophene-2-carboxylic acid (4-cyclohexylphenyl)-[4-(2H-tetrazol-5-ylcarbamoyl)benzyl]amide]
564	CC(C)c1ccc(NC(=O)N(Cc2ccc(C(=O)NCCC(=O)O)cc2)CC(C)c2ccccc2)cc1 (centres unmarked) [Example 50, 3-{4-[3-(4-Isopropylphenyl)-1-(2-phenylpropyl)ureidomethyl]benzoylamino}propionic acid]
22	O=C(Nc1nn[nH]n1)c1ccc(CN(C(=O)NCc2ccccc2-c2ccccc2)c2ccc(C3=CCCCC3)cc2)cc1 [Example 353, 4-[3-Biphenyl-2-ylmethyl-1-(4-cyclohex-1-enylphenyl)ureidomethyl]-N-(2H-tetrazol-5-yl)benzamide]
645	CC(C)(C)C1CCC(N(Cc2ccc(C(=O)NCCC(=O)O)cc2)C(=O)Nc2ccc(C(F)(F)F)cc2)CC1 (centres unmarked) [Example 63, 3-{4-[1-(4-tert-Butylcyclohexyl)-3-(4-trifluoromethylphenyl)ureidomethyl]benzoylamino}propionic acid]
309	CC(Oc1cccc(Cl)c1)C(=O)N(Cc1ccc(C(=O)Nc2nn[nH]n2)cc1)C1CCC(C(C)(C)C)CC1 (centres unmarked) [Example 548, 4-({(4-tert-Butylcyclohexyl)-[2-(3-chlorophenoxy)propionyl]amino}methyl)-N-(2H-tetrazol-5-yl)benzamide]
626	O=C(Nc1nn[nH]n1)c1ccc(CN(C(=O)CSCc2ccccc2)c2ccc(C3CCCCC3)cc2)cc1 [Example 532, 4-{[(2-Benzylsulfanylacetyl)-(4-cyclohexylphenyl)amino]methyl}-N-(2H-tetrazol-5-yl)benzamide]
276	O=C(Nc1nn[nH]n1)c1ccc(CN(C(=O)/C=C/c2c(Cl)cccc2Cl)c2ccc(C3CCCCC3)cc2)cc1 [Example 480, 4-({(4-Cyclohexylphenyl)-[3-(2,6-dichlorophenyl)acryloyl]amino}methyl)-N-(2H-tetrazol-5-yl)benzamide]
101	CCC(C)c1ccc(N(Cc2ccc(C(=O)Nc3nn[nH]n3)cc2)C(=O)Nc2cc(C(=O)OC)cc(C(=O)OC)c2)cc1 (centres unmarked) [Example 290]
279	CC(C)(C)c1ccc(N(Cc2ccc(C(=O)Nc3nn[nH]n3)cc2)C(=O)Nc2cccc(C#N)c2)cc1 [Example 295, 4-[1-(4-tert-Butylphenyl)-3-(3-cyanophenyl)ureidomethyl]-N-(2H-tetrazol-5-yl)benzamide]
207	O=C(O)CCNC(=O)c1ccc(CN(C(=O)Nc2ccc(OC(F)(F)F)cc2)c2ccc(C(F)(F)F)cc2)cc1 [Example 437, 3-{4-[3-(4-Trifluoromethoxyphenyl)-1-(4-trifluoromethylphenyl)ureidomethyl]benzoylamino}propionic acid]
12	O=C(Nc1nn[nH]n1)c1ccc(CN(C(=O)Nc2ccc3c(c2)C(F)(F)OC(F)(F)O3)c2ccc(C3CCCCC3)cc2)cc1 [Example 366, 4-[1-(4-Cyclohexylphenyl)-3-(2,2,4,4-tetrafluoro-4H-benzo[1,3]dioxin-6-yl)ureidomethyl]-N-(2H-tetrazol-5-yl)benzamide]
505	O=C(O)CCNC(=O)c1ccc(CN(CC(c2ccccc2)c2ccccc2)C(=O)Nc2ccc(Oc3ccccc3)cc2)cc1 [Example 53, 3-{4-[1-(2,2-Diphenylethyl)-3-(4-phenoxyphenyl)ureidomethyl]benzoylamino}propionic acid]
95	CCCCN(C)C(=O)c1cccc(NC(=O)N(Cc2ccc(C(=O)Nc3nn[nH]n3)cc2)c2ccc(C3CCCCC3)cc2)c1 [Example 464, N-Butyl-N-methyl-3-{3-(4-cyclohexylphenyl)-3-[4-(2H-tetrazol-5-ylcarbamoyl)benzyl]ureido}benzamide]
306	O=C(Nc1nn[nH]n1)c1ccc(CN(C(=O)c2cccc(Cl)c2)c2ccc(C3=CCCCC3)cc2)cc1 [Example 495, 4-({(4-Cyclohex-1-enylphenyl)-(3-chlorobenzoyl)amino}methyl)-N-(2H-tetrazol-5-yl)benzamide]
606	CCCCNC(=O)c1cccc(NC(=O)N(Cc2ccc(C(=O)Nc3nn[nH]n3)cc2)c2ccc(C3CCCCC3)cc2)c1 [Example 465, N-Butyl-3-{3-(4-cyclohexylphenyl)-3-[4-(2H-tetrazol-5-ylcarbamoyl)benzyl]ureido}benzamide]
337	CCCCOC(=O)c1ccc(NC(=O)N(Cc2ccc(C(=O)NCCC(=O)O)cc2)CC(c2ccccc2)c2ccccc2)cc1 [Example 54, 4-[3-[4-(2-Carboxyethylcarbamoyl)benzyl]-3-(2,2-diphenylethyl)ureido]benzoic acid butyl ester]
896	O=C(O)CCNC(=O)c1ccc(CN(C(=O)c2ccc3c(c2)-c2ccccc2C3=O)c2ccc(C3CCCCC3)cc2)cc1 [Example 522, 3-(4-{[(4-Cyclohexylphenyl)-(9-oxo-9H-fluorene-3-carbonyl)amino]methyl}benzoylamino)propionic acid]
338	O=C(O)CCNC(=O)c1ccc(CN(NC(=O)c2ccc(OC(F)(F)F)cc2)C2CCC(c3ccccc3)CC2)cc1 (centres unmarked) [Example 426, 3-{4-[N-(4-Phenylcyclohexyl)-N′-(4-trifluoromethoxybenzoyl)hydrazinomethyl]benzoylamino}propionic acid]
38	O=C(Nc1nn[nH]n1)c1ccc(CN(C(=O)Nc2cc(Br)cc(C(F)(F)F)c2)c2ccc(C3=CCCCC3)cc2)cc1 [Example 269, 4-[3-(3-Bromo-5-trifluoromethylphenyl)-1-(4-cyclohex-1-enylphenyl)ureidomethyl]-N-(2H-tetrazol-5-yl)benzamide]
1800	O=C(Nc1nn[nH]n1)c1ccc(CN(C(=O)CCOc2ccccc2)c2ccc(C3CCCCC3)cc2)cc1 [Example 533, 4-{[(4-Cyclohexylphenyl)-(3-phenoxypropionyl)amino]methyl}-N-(2H-tetrazol-5-yl)benzamide]
302	Cc1ccc(S(C)(=O)=O)cc1NC(=O)N(Cc1ccc(C(=O)Nc2nn[nH]n2)cc1)c1ccc(C2CCCCC2)cc1 [Example 261, 4-[1-(4-Cyclohexylphenyl)-3-(5-methylsulfonyl-2-methylphenyl)ureidomethyl]-N-(2H-tetrazol-5-yl)benzamide]
536	O=C(O)CCNC(=O)c1ccc(CN(Cc2cc(Cl)cc(Cl)c2)NC(=O)c2ccc(OC(F)(F)F)cc2)cc1 [Example 422, 3-{4-[N-(3,5-Dichlorobenzyl)-N′-(4-trifluoromethoxybenzoyl)hydrazinomethyl]benzoylamino}propionic acid]
7	CCCCN1C(=O)c2ccc(NC(=O)N(Cc3ccc(C(=O)Nc4nn[nH]n4)cc3)c3ccc(C4=CCCCC4)cc3)cc2C1=O [Example 625, 4-[3-(N′-Butylphthalimid-4-yl)-1-(4-cyclohex-1-enylphenyl)ureidomethyl]-N-(2H-tetrazol-5-yl)benzamide]
135	CCC[C@H]1CC[C@H](N(Cc2ccc(C(=O)NCCC(=O)O)cc2)C(=O)Nc2ccc(OC(F)(F)F)cc2)CC1 [Example 76, 3-{4-[1-(4-trans-Propylcyclohexyl)-3-(4-trifluoromethoxyphenyl)ureidomethyl]benzoylamino}propionic acid]
16	O=C(Nc1nn[nH]n1)c1ccc(CN(C(=O)Nc2cccc(Br)c2)c2ccc(C3CCCCC3)cc2)cc1 [Example 356, 4-[3-(3-Bromophenyl)-1-(4-cyclohexylphenyl)ureidomethyl]-N-(2H-tetrazol-5-yl)benzamide]
222	O=C(Nc1nn[nH]n1)c1ccc(CN(C(=O)Nc2ccc(OC(F)(F)F)cc2)C2CCC(C3CC3)CC2)cc1 (centres unmarked) [Example 604, 4-[1-(4-Cyclopropylcyclohexyl)-3-(4-trifluoromethoxyphenyl)ureidomethyl]-N-(2H-tetrazol-5-yl)benzamide]

Compound	IC50 [nM]
O=C(O)CCNC(=O)c1ccc(CN(C(=O)Oc2ccccc2[N+](=O)[O-])c2ccc(C3CCCCC3)cc2)cc1 [Example 415, 3-(4-{[(4-Cyclohexylphenyl)-(2-nitrophenoxycarbonyl)amino]methyl}benzoylamino)propionic acid]	2420
O=C(O)CCNC(=O)c1ccc(CN(C(=O)Oc2ccc([N+](=O)[O-])cc2)c2ccc(C3CCCCC3)cc2)cc1 [Example 413, 3-(4-{[(4-Cyclohexylphenyl)-(4-nitrophenoxycarbonyl)amino]methyl}benzoylamino)propionic acid]	1200

Same assay, conditions: Glu Bd Assay (III) IC50 (nM), BHK cell membranes, WGA SPA beads, 125I-glucagon

Compound	IC50 [nM]
CC(C)(C)[C@H]1CC[C@@H](N(Cc2ccc(C(=O)NCCC(=O)O)cc2)C(=O)Nc2ccc(OC(F)(F)F)cc2)CC1 [Example 93, 3-{4-[1-(cis-4-tert-Butylcyclohexyl)-3-(4-trifluoromethoxy-phenyl)ureidomethyl]benzoylamino}propionic acid]	47
CC(C)(C)[C@H]1CC[C@H](N(Cc2ccc(C(=O)NCCC(=O)O)cc2)C(=O)Nc2ccc(OCC3CC3)cc2)CC1 [Example 241, 3-{4-[1-(trans-4-tert-Butylcyclohexyl)-3-(4-cyclopropylmethoxyphenyl)ureidomethyl]benzoylamino}propionic acid]	140
CC(C)(C)[C@H]1CC[C@H](N(Cc2ccc(C(=O)NCCC(=O)O)cc2)C(=O)Nc2ccc(OCC3CC3)cc2C(F)(F)F)CC1 [Example 250, 3-{4-[1-(trans-4-tert-Butylcyclohexyl)-3-(4-cyclopropylmethoxy-2-trifluoromethylphenyl)ureidomethyl]benzoylamino}propionic acid]	182

From patent US6875760B2 (Novo Nordisk A/S, priority 1999, dated 2005)
